Patent US6599748B1, “Hardness indicator composition and method of water hardness analysis” (Miura Co., Ltd., priority 1999, dated 2003)
Read-outs that look alike come from different tables or passages of the source.

Key:
[1] = Ca chelate stability constant (chelating power with calcium); format: physicochemical
Source text: […]. […] […].

[2] = Source text: Therefore, the desensitizer to be added to the metal indicator is explained. […] However, the desensitizer differs from the metal indicator in that the metal indicator forms complex ions in combination with all hardness-component metal ions, while the desensitizer forms complex ions in combination with part of the hardness-component metal ions. […] Symbol “ ” in results represents usableness as the desensitizer, and “×” represents unusableness as the desensitizer.
Accordingly, Table 1 show the results of judgment determined by taking into account these conditions.

Row | Molecule | Ca chelate stability constant, logK [1] | Ca chelate stability constant, logK ([1]; chelating power with calcium) | Solubility, g/100 g water [2]
1 | O=C([O-])CC(O)(CC(=O)O)C(=O)[O-].[K+].[K+] [2K citrate] | <2.0 | – | –
2 | O=C([O-])CC(O)(CC(=O)[O-])C(=O)[O-].[Na+].[Na+].[Na+] [2Na citrate, sodium citrate] | – | <2.0 | –
3 | sodium polyacrylate [Na polyacrylate] | <2.0 | – | over 40 g/100 g water
4 | O=C([O-])CNCC(=O)[O-].[K+].[K+] [2K iminodiacetate] | 2.59 | – | –
5 | O=C([O-])CNCC(=O)[O-].[Na+].[Na+] [2Na iminodiacetate, sodium iminodiacetate] | 2.59 | – | 10 g/100 g water
